Consider 23 molecules from patent publication US12522607B2, “Substituted pyrazolo[3,4-d]pyrimidines as wee-1 inhibitors” (WIGEN BIOMEDICINE TECHNOLOGY (SHANGHAI) CO., LTD., priority 2020, dated 2026).

One data set has as its system HT29 cells. The data set can be described thus: Antiproliferative activity against HT29 cells (Cell Titer-Lumi, ATP content). It is filed as cell-based. The settings on record: Homo sapiens, HT-29, 72 after compound addition, read-out: HT-29 cells Anti-proliferative activity (IC50 for the inhibition against HT-29 cell growth). In a few lines: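 Growth inhibition IC50 derived from luminescent ATP content after 72 (units as printed) of compound exposure over a dilution gradient. Seeding density 3000 cells per well; compound added once cells had adhered overnight.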

A short description of data set [1]: Pharmacokinetic evaluation in mice. The class given is in vivo, male ICR mice. Particulars: for AUC(0-t) / clearance / half-life / Vd / Cmax / Tmax: male, ICR, mouse, plasma; for Vd: read-out: Vss; for F: po 10 mg/kg vs iv 2 mg/kg. Here is the method:
Example 344. Pharmacokinetic Evaluation in Mice
The compounds were administered by intravenous injection at a dose of 2 mg/kg and oral gavage at a dose of 10 mg/kg (0.5% CMC-Na suspension). 15 male ICR mice were selected for each group, and each mouse was subjected to blood collection at 3 discrete time points, with 3 mice at each time point. The time points of sampling were as follows: before administration, and 5 min, 15 min, 30 min, 1 h, 3 h, 5 h, 8 h, 12 h and 24 h after administration. 80 μL of blood was collected from the orbits or hearts of the mice at each time point after administration. All whole blood samples were collected in tubes containing EDTA K2 and centrifuged (1500-1600 rmp/min) at 4° C. for 10 min to isolate plasma, which was then stored in a refrigerator at −90° C. to −60° C. for sample analysis. The compound concentration in the plasma was determined by liquid chromatography-tandem mass spectrometry, and the corresponding pharmacokinetic parameters were obtained according to a plasma concentration-time curve.

For the next data set, the target named is T1, Wee-1 kinase (Homo sapiens, UniProt P30291).
T1 construct: purchased Invitrogen
T1 sequence (P30291 whole entry): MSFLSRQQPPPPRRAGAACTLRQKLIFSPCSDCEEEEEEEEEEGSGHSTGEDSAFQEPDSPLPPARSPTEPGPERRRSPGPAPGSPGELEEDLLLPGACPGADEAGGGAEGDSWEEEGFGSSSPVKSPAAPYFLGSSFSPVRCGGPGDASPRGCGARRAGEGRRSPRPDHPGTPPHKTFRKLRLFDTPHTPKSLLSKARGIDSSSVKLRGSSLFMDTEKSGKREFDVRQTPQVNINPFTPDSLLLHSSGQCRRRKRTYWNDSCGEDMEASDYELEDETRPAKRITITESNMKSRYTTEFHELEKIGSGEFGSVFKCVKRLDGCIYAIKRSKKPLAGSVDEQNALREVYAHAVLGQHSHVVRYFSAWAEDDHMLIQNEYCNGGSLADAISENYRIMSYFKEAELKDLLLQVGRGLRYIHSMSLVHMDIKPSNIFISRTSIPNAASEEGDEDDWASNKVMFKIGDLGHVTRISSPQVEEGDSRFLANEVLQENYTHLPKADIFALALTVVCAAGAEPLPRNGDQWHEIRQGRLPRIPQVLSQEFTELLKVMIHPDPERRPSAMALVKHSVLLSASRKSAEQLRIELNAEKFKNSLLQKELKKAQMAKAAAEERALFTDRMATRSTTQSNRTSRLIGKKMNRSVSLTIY
As to the kind of experiment: Inhibitory activity against Wee-1 kinase (Lanthra Screen Wee-1 kinase kit, Tracer 178). The class given is binding. The settings on record: Wee-1 kinase 5 nM, Tracer 178 50 nM, 1 h room temperature. In a few lines: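 Compound gradient in DMSO mixed with 5 nM Wee-1, 2 nM Eu-anti-GST antibody and 50 nM Tracer 178 (all final). Read after one hour at room temperature; IC50 calculated against the DMSO solvent control.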

Setting [2] is: po, 10 mg/kg, 0.5% CMC-Na suspension.

Each structure is given as a SMILES string.

What is called IC50 is the concentration that inhibits the measured activity by half. One may read the AUC(0-t) as the area under the concentration-time curve up to a stated or last time point. High values mean high exposure, low ones low exposure. In general, clearance refers to a measure of how efficiently the substance is removed, as volume per time. One may read the half-life as how long it takes for the measured level to halve. A higher half-life goes with slow loss. Broadly, the Cmax is the peak of the concentration-time curve. For orientation: Tmax means the time from dosing to the highest level. On to `C=CCn1c(=O)c2cnc(Nc3ccc(N4CCN(C)CC4)cc3)nc2n1-c1cccc(C(C)(C)O)n1` [AZD-1775, reference compound], for which the IC50 in the data set with HT29 cells was at most 1 µM. In addition, in data set [1] (iv, 2 mg/kg), the AUC(0-t) was determined as 152 ng·h/mL, the clearance is 220 mL/min/kg, the half-life is 18 min and the Vd was 3.51 L/kg. In data set [1] (setting [2]), the AUC(0-t) amounted to 215 ng·h/mL, the Cmax worked out at 247 ng/mL, the Tmax worked out at 30 min and the half-life is 87 min. In addition, the F in data set [1] is 28.3%.

For `C=CCn1c(=O)c2cnc(Nc3ccc(N4CCN(C)CC4)cc3)nc2n1-c1ccc(=O)n(C(C)C)n1` [Compound 3], the IC50 with HT29 cells is at most 1 µM. The “oral absorption characteristics (in words)” value in data set [1] (compared with control drug AZD-1775) is “good oral absorption characteristics”. In data set [1] (iv, 2 mg/kg), the AUC(0-t) came out at 736 ng·h/mL, the clearance came out at 45.3 mL/min/kg, the half-life was 43.1 min and the Vd worked out at 1.8 L/kg. Also, in data set [1] (setting [2]), the AUC(0-t) was 1210 ng·h/mL, the highest level (Cmax) was 533 ng/mL, the Tmax is 15 min and the half-life was 115 min. This molecule also showed a F in data set [1] of 32.9%. The molecule further showed an IC50 at Wee-1 kinase of at most 0.03 µM.

For `Cc1cc(Nc2ncc3c(=O)n(C(C)C)n(-c4cc(F)c(=O)n(C(C)C)c4)c3n2)ccc1C1CCN(C)CC1` [Compound 321], the IC50 in the data set on HT29 cells was at most 1 µM; against Wee-1 kinase, at most 0.03 µM.

In the case of `CC(C)n1cc(-n2c3nc(Nc4ccc5c(c4)CN(C)CC54CC4)ncc3c(=O)n2C(C)C)cc(F)c1=O` [Compound 322], the IC50 was at most 1 µM in the data set with HT29 cells and at most 0.03 µM at Wee-1 kinase.

Take `CC(C)n1cc(-n2c3nc(Nc4ccc(N5CCN(C)CC5)cc4)ncc3c(=O)n2C2CC2)cc(F)c1=O` [Compound 323]: the IC50 with HT29 cells was at most 1 µM; at Wee-1 kinase, at most 0.03 µM.

On to `Cc1cc(Nc2ncc3c(=O)n(C4CC4)n(-c4cc(F)c(=O)n(C(C)C)c4)c3n2)ccc1N1CCN(C)CC1` [Compound 324], for which the IC50 with HT29 cells was at most 1 µM; against Wee-1 kinase it was at most 0.03 µM.

For the molecule `Cc1cc(Nc2ncc3c(=O)n(C4CC4)n(-c4cc(F)c(=O)n(C(C)C)c4)c3n2)ccc1C1CCN(C)CC1` [Compound 325], the figures for the IC50 in the data set with HT29 cells and on Wee-1 kinase were at most 1 µM and at most 0.03 µM, respectively.

Regarding `CC(C)n1cc(-n2c3nc(Nc4ccc5c(c4)CN(C)CC54CC4)ncc3c(=O)n2C2CC2)cc(F)c1=O` [Compound 326], the IC50 was at most 1 µM in the data set with HT29 cells and at most 0.03 µM on Wee-1 kinase.

With `C=CCn1c(=O)c2cnc(Nc3ccc(N4CCN(C)CC4)c(C)c3)nc2n1-c1ccc(=O)n(C(C)(C)C)c1` [Compound 327], the IC50 in the data set with HT29 cells is at most 1 µM; on Wee-1 kinase, at most 0.03 µM.

As to `C=CCn1c(=O)c2cnc(Nc3ccc(C4CCN(C)CC4)c(C)c3)nc2n1-c1ccc(=O)n(C(C)(C)C)c1` [Compound 328], the IC50 in the data set on HT29 cells is at most 1 µM; against Wee-1 kinase it was at most 0.03 µM.

With `C=CCn1c(=O)c2cnc(Nc3ccc4c(c3)CN(C)CC43CC3)nc2n1-c1ccc(=O)n(C(C)(C)C)c1` [Compound 329], the IC50 in the data set on HT29 cells was at most 1 µM; on Wee-1 kinase, at most 0.03 µM.

`CCn1c(=O)c2cnc(Nc3ccc(N4CCN(C)CC4)cc3)nc2n1-c1ccc(=O)n(C(C)(C)C)c1` [Compound 330]: the IC50 in the data set on HT29 cells is at most 1 µM; against Wee-1 kinase it was at most 0.03 µM.

Consider `CCn1c(=O)c2cnc(Nc3ccc(N4CCN(C)CC4)c(C)c3)nc2n1-c1ccc(=O)n(C(C)(C)C)c1` [Compound 331], for which the IC50 was at most 1 µM in the data set with HT29 cells and at most 0.03 µM on Wee-1 kinase.

As for `CCn1c(=O)c2cnc(Nc3ccc(C4CCN(C)CC4)c(C)c3)nc2n1-c1ccc(=O)n(C(C)(C)C)c1` [Compound 332], the IC50 in the data set on HT29 cells was at most 1 µM; against Wee-1 kinase it was at most 0.03 µM.

Consider `CCn1c(=O)c2cnc(Nc3ccc4c(c3)CN(C)CC43CC3)nc2n1-c1ccc(=O)n(C(C)(C)C)c1` [Compound 333], for which the IC50 in the data set with HT29 cells is at most 1 µM; against Wee-1 kinase it was at most 0.03 µM.

Take `CC(C)n1c(=O)c2cnc(Nc3ccc(N4CCN(C)CC4)cc3)nc2n1-c1ccc(=O)n(C(C)(C)C)c1` [Compound 334]: the results for the IC50 in the data set on HT29 cells and at Wee-1 kinase were at most 1 µM and at most 0.03 µM, respectively.

In the case of `Cc1cc(Nc2ncc3c(=O)n(C(C)C)n(-c4ccc(=O)n(C(C)(C)C)c4)c3n2)ccc1N1CCN(C)CC1` [Compound 335], the IC50 in the data set on HT29 cells is at most 1 µM; on Wee-1 kinase it was at most 0.03 µM.

Consider `Cc1cc(Nc2ncc3c(=O)n(C(C)C)n(-c4ccc(=O)n(C(C)(C)C)c4)c3n2)ccc1C1CCN(C)CC1` [Compound 336], for which the IC50 in the data set on HT29 cells was at most 1 µM; against Wee-1 kinase it was at most 0.03 µM.

Consider `CC(C)n1c(=O)c2cnc(Nc3ccc4c(c3)CN(C)CC43CC3)nc2n1-c1ccc(=O)n(C(C)(C)C)c1` [Compound 337], for which the IC50 in the data set on HT29 cells is at most 1 µM; at Wee-1 kinase, at most 0.03 µM.

As for `CN1CCN(c2ccc(Nc3ncc4c(=O)n(C5CC5)n(-c5ccc(=O)n(C(C)(C)C)c5)c4n3)cc2)CC1` [Compound 338], the IC50 in the data set on HT29 cells was at most 1 µM; against Wee-1 kinase, at most 0.03 µM.

With `Cc1cc(Nc2ncc3c(=O)n(C4CC4)n(-c4ccc(=O)n(C(C)(C)C)c4)c3n2)ccc1N1CCN(C)CC1` [Compound 339], the IC50 with HT29 cells was at most 1 µM; on Wee-1 kinase, at most 0.03 µM.

On to `Cc1cc(Nc2ncc3c(=O)n(C4CC4)n(-c4ccc(=O)n(C(C)(C)C)c4)c3n2)ccc1C1CCN(C)CC1` [Compound 340], for which the IC50 in the data set on HT29 cells was at most 1 µM; against Wee-1 kinase, at most 0.03 µM.

For the molecule `CN1Cc2cc(Nc3ncc4c(=O)n(C5CC5)n(-c5ccc(=O)n(C(C)(C)C)c5)c4n3)ccc2C2(CC2)C1` [Compound 341], the values for the IC50 in the data set on HT29 cells and on Wee-1 kinase were at most 1 µM and at most 0.03 µM, respectively.
